The source of these data is US20100310488A1, “SELECTING/IDENTIFYING AND ADMINISTERING ACTIVE AGENTS USEFUL FOR MODIFYING THE SHAPE OF KERATIN/HAIR FIBERS” (L'OREAL, priority 2007, published 2010).

Each structure is given as a SMILES string.

The subject of this experiment is fibroblasts (dermal papilla, connective sheath, dermal). In words: Assaying of sulfated glycosaminoglycans in fibroblast culture (Blyscan). In kind it is cell-based, human. As to conditions: 7 days. As to the method: The fibroblasts are cultured in DMEM medium, 10% foetal calf serum (Gibco, Invitrogen), 1 mM MEM pyruvate (Gibco, Invitrogen) and 25 units/ml of penicillin-streptomycin (Gibco, Invitrogen). The dermal papilla fibroblast (P6), connective sheath fibroblast (P6) and dermal fibroblast are then counted using a Coulter Counter Z2 (Beckman Coulter inc., Fullerton, USA) and seeded at 2×10^5 cells per well in a 12-well plate, with the wells containing 1.5 ml of medium alone, which is the “control” condition, or being treated with 3 mM of 1,5-anhydro-6,8-dideoxy-L-glucooctitol. After 7 days, the supernatant is recovered and stored at −80° C. until the GAGs are assayed. […]
The proteins present in the lysate are assayed using the Dc Protein assay kit (Biorad). The amount of glycosaminoglycans is measured in the supernatant and the lysate.
The glycosaminoglycans are assayed using the Blyscan glycosaminoglycan isolation & concentration kit (Biocolor, Newtownabbey, Northern Ireland) and the Blyscan sulfated glycosaminoglycan assay kit. […] Each sample to be measured is mixed with 700 μl of the cetylpyridinium chloride solution in a 1.5 ml centrifuge tube, and then incubated on a rotary mixer thermostated at 37° C., at 250 rpm, for 2 hours. […] The absorbance of the solution at 656 nm is measured using a polystyrene semi-microcuvette on a Biomate 5 spectrometer (Thermo). […]

As for `CC(O)CC1OCC(O)C(O)C1O` [1,5-anhydro-6,8-dideoxy-L-glucooctitol], the “increase in amount of glycosaminoglycans secreted” value (relative to control (medium alone), 3 mM in method) is “up to 7 times”. For the same compound, the “GAG synthesis by the fibroblasts” value (versus control (medium alone)) is given as “increase in GAG synthesis by the fibroblasts, proportional to the concentration”.
